pIC50: −log10 of the molar value.
Columns and labels:
Type in all cases: biochemical
MKK4 = target: T1, MKK4 (Homo sapiens, UniProt P45985); assay: 33PanQinase kinase assay, MKK4 potency; conditions: based on inhibition of enzyme activity at a single concentration or on IC50-values
T1 construct: purchased ProQinase GmbH, Freiburg, Germany (assay service)
T1 sequence (P45985 1-399): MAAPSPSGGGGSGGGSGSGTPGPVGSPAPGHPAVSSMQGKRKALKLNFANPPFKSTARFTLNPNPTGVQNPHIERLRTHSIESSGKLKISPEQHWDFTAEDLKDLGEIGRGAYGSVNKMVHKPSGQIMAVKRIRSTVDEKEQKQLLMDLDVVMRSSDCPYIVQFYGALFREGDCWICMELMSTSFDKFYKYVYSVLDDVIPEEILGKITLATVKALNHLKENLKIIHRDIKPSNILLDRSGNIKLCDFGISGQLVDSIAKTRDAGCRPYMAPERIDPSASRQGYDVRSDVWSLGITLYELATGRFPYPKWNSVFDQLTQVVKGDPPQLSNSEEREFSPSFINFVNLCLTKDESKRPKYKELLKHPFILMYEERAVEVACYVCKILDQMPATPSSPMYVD
Description: (§1) The kinase activities of the compounds of the invention were measured using the 33PanQinase® Assay Service provided by ProQinase GmbH, Freiburg, Germany. Details of the assay conditions are disclosed on the website of ProQinase (https://www.proqinase.com/products-services-biochemical-assay-services/kinase-assays).
(§2) In brief, all kinase assays were performed in 96-well FlashPlates™ from PerkinElmer (Boston, MA, USA) in a 50 μl reaction volume. The reaction cocktail was pipetted in four steps in the following order: • 20 μl of assay buffer (standard buffer) • 5 μl of ATP solution (in H2O) • 5 μl of test compound (in 10% DMSO) • 20 μl enzyme/substrate mix
(§3) The assay for all protein kinases contained 70 mM HEPES-NaOH pH7.5, 3 mM MgCl2, 3 mM MnCl2, 3 μM Na-orthovanadate, 1.2 mM DTT, 50 μg/ml PEG20000, ATP (variable concentrations, corresponding to the apparent ATP-Km of the respective kinase), [γ-^33P]-ATP (approx. […] per well), protein kinase and substrate.
(§4) The reaction cocktails were incubated at 30° C. for 60 minutes. The reaction is stopped with 50 μl of 2% (v/v) H3PO4, plates were aspirated and washed two times with 200 μl 0.9% (w/v) NaCl. Incorporation of ^33Pi was determined with a microplate scintillation counter (Microbeta, Wallac).
(§5) All assays were performed with a BeckmanCoulter/SAGIAN™ Core System.
(§6) In case of single concentration assays, the potency of the test compound is expressed as % residual activity. For determination of IC50-values, serial dilutions in the final concentration range between 100 μM and 3 nM (10 concentrations) were tested. The fitting model for the IC50 determinations was “Sigmoidal response (variable slope)” with parameters “top” fixed at 100% and “bottom” at 0%. The fitting method used was a least-squares fit.

BRaf = target: T2, BRaf (Homo sapiens, UniProt P15056); assay: 33PanQinase kinase assay, selectivity against BRaf; conditions: ratio IC50 (BRaf)/IC50 (MKK4)
T2 construct: purchased ProQinase GmbH, Freiburg, Germany (assay service)
Description: as §1, §2, §3, §4, §5, §6
(§7) Selectivity of test compounds against BRaf, JNK1 and MKK7, altogether denominated as off-targets was calculated by the ratio of IC50 (off-target)/IC50 (MKK4) and categorized as follows: […]

MKK7 = target: T3, MKK7 (Homo sapiens, UniProt O14733); assay: 33PanQinase kinase assay, selectivity against MKK7; conditions: ratio IC50 (MKK7)/IC50 (MKK4)
T3 construct: purchased ProQinase GmbH, Freiburg, Germany (assay service)
T3 sequence (O14733 1-419): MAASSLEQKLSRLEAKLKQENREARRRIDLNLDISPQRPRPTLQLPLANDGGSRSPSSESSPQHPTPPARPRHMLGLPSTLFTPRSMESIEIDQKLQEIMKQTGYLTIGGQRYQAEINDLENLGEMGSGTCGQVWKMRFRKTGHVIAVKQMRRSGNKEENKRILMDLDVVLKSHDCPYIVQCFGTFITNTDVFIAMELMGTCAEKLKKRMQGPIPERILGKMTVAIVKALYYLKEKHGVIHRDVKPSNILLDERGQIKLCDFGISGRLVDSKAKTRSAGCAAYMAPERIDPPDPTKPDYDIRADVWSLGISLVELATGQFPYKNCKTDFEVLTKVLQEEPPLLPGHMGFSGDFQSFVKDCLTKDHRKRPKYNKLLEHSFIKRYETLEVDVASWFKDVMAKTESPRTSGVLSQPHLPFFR
Description: as §1, §2, §3, §4, §5, §6, §7

JNK1 = target: T4, JNK1 (Homo sapiens, UniProt P45983); assay: 33PanQinase kinase assay, selectivity against JNK1; conditions: ratio IC50 (JNK1)/IC50 (MKK4)
T4 construct: purchased ProQinase GmbH, Freiburg, Germany (assay service)
Description: as §1, §2, §3, §4, §5, §6, §7

T4 sequence (P45983 whole entry): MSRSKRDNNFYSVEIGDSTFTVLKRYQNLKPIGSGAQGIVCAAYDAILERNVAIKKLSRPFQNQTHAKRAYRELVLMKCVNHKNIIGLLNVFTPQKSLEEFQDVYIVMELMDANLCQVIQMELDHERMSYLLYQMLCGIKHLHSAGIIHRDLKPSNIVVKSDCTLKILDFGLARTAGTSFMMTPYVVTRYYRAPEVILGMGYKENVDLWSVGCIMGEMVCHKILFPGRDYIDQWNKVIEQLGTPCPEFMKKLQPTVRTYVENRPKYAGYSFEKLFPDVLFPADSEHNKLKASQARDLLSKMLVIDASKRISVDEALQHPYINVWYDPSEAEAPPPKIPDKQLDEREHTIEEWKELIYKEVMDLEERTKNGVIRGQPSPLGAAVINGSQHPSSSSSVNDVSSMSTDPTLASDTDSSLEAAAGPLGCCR
T2 sequence (P15056 whole entry): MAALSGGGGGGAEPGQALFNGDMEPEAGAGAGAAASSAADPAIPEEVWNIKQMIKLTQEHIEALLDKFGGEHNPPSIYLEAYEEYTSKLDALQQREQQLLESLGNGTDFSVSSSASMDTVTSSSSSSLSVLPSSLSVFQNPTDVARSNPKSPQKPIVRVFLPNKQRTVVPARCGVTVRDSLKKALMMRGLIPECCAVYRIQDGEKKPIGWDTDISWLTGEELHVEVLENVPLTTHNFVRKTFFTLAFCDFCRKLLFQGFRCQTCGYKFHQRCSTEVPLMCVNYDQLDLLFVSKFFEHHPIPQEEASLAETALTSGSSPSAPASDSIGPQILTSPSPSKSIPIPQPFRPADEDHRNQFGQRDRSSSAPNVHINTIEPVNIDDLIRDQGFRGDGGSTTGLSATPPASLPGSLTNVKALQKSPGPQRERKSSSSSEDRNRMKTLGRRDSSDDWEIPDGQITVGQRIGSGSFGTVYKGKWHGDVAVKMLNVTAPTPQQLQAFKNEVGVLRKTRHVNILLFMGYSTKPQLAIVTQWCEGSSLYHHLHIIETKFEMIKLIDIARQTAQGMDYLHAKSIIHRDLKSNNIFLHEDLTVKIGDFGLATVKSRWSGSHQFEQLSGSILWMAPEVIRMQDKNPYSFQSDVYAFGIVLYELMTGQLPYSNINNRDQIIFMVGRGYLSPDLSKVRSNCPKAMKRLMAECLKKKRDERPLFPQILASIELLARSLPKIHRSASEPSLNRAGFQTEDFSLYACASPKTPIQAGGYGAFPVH

SMILES	pIC50 (MKK4)	Selectivity BRaf, IC50(off-target)/IC50(MKK4) (BRaf)	Selectivity MKK7, IC50(off-target)/IC50(MKK4) (MKK7)	Selectivity JNK1, IC50(off-target)/IC50(MKK4) (JNK1)
CCCS(=O)(=O)Nc1c(F)ccc(C(=O)c2c[nH]c3ncc(-c4ccc(C(=O)NOCCO)cc4)cc23)c1F [Example 3, 4-(3-(2,4-difluoro-3-(propylsulfonamido)benzoyl)-1H-pyrrolo[2,3-b]pyridin-5-yl)-N-(2-hydroxyethoxy)benzamide]	> 7.00	++ (100 ≥ IC50(off-target)/IC50(MKK4) > 10)	+++ (IC50(off-target)/IC50(MKK4) > 100)	++ (100 ≥ IC50(off-target)/IC50(MKK4) > 10)
CCCS(=O)(=O)Nc1c(F)ccc(C(=O)c2c[nH]c3ncc(-c4ccc(P(C)(C)=O)cc4)cc23)c1F [Example 4]	> 7.00	++ (100 ≥ IC50(off-target)/IC50(MKK4) > 10)	+++ (IC50(off-target)/IC50(MKK4) > 100)	++ (100 ≥ IC50(off-target)/IC50(MKK4) > 10)
CCCS(=O)(=O)Nc1c(F)ccc(C(=O)c2c[nH]c3ncc(-c4cnc(C5CCC5)nc4)cc23)c1F [Example 5]	6.00 to 7.00	+++ (IC50(off-target)/IC50(MKK4) > 100)	+++ (IC50(off-target)/IC50(MKK4) > 100)	+++ (IC50(off-target)/IC50(MKK4) > 100)
CCCS(=O)(=O)Nc1c(F)ccc(C(=O)c2c[nH]c3ncc(-c4cnc(C5CCCC5)nc4)cc23)c1F [Example 6]	5.00 to 6.00	+++ (IC50(off-target)/IC50(MKK4) > 100)	+++ (IC50(off-target)/IC50(MKK4) > 100)	++ (100 ≥ IC50(off-target)/IC50(MKK4) > 10)
CCCS(=O)(=O)Nc1c(F)cc(F)c(C(=O)c2c[nH]c3ncc(-c4cnc(C5CC5)nc4)cc23)c1F [Example 7]	> 7.00	+++ (IC50(off-target)/IC50(MKK4) > 100)	+++ (IC50(off-target)/IC50(MKK4) > 100)	+++ (IC50(off-target)/IC50(MKK4) > 100)
CCCS(=O)(=O)Nc1c(F)ccc(C(=O)c2c[nH]c3ncc(-c4cnc(OC)nc4C)cc23)c1F [Example 8]	> 7.00	++ (100 ≥ IC50(off-target)/IC50(MKK4) > 10)	+++ (IC50(off-target)/IC50(MKK4) > 100)	+ (10 ≥ IC50(off-target)/IC50(MKK4) > 3)
CCCS(=O)(=O)Nc1c(F)ccc(C(=O)c2c[nH]c3ncc(-c4cncnc4C)cc23)c1F [Example 9]	> 7.00	+++ (IC50(off-target)/IC50(MKK4) > 100)	+++ (IC50(off-target)/IC50(MKK4) > 100)	++ (100 ≥ IC50(off-target)/IC50(MKK4) > 10)
CCCS(=O)(=O)Nc1c(F)ccc(C(=O)c2c[nH]c3ncc(-c4cnc(C)nc4C)cc23)c1F [Example 10]	> 7.00	+++ (IC50(off-target)/IC50(MKK4) > 100)	+++ (IC50(off-target)/IC50(MKK4) > 100)	+++ (IC50(off-target)/IC50(MKK4) > 100)
CCCS(=O)(=O)Nc1c(F)ccc(C(=O)c2c[nH]c3ncc(-c4cnc(C5CC5)nc4C)cc23)c1F [Example 11]	> 7.00	+++ (IC50(off-target)/IC50(MKK4) > 100)	+++ (IC50(off-target)/IC50(MKK4) > 100)	+++ (IC50(off-target)/IC50(MKK4) > 100)
CCCS(=O)(=O)Nc1c(F)ccc(C(=O)c2c[nH]c3ncc(-c4cnc(C5CC5)nc4SC)cc23)c1F [Example 12]	6.00 to 7.00	++ (100 ≥ IC50(off-target)/IC50(MKK4) > 10)	+++ (IC50(off-target)/IC50(MKK4) > 100)	++ (100 ≥ IC50(off-target)/IC50(MKK4) > 10)
CCCS(=O)(=O)Nc1c(F)ccc(C(=O)c2c[nH]c3ncc(-c4cnc(OCC(C)(C)C)nc4)cc23)c1F [Example 13]	< 5.00	+ (10 ≥ IC50(off-target)/IC50(MKK4) > 3)	+ (10 ≥ IC50(off-target)/IC50(MKK4) > 3)	+ (10 ≥ IC50(off-target)/IC50(MKK4) > 3)
O=C(c1c(F)cc(F)c(NS(=O)(=O)Cc2ccccc2)c1F)c1c[nH]c2ncc(-c3cnc(C4CC4)nc3)cc12 [Example 14]	> 7.00	++ (100 ≥ IC50(off-target)/IC50(MKK4) > 10)	+++ (IC50(off-target)/IC50(MKK4) > 100)	++ (100 ≥ IC50(off-target)/IC50(MKK4) > 10)
